Results taken from PubChem BioAssay AID248 (DTP/NCI, 2004).
“And” between values parts separate entries of the source, which are not always exact repeats. Equal entries are not always repeated. Inconclusive results and toxic doses are left out. Rule as the data show it: active = T/C of 150% or more; inactive = T/C below 125%.

Tested on: L1210 leukemia ip in BDF1 mice, survival T/C
Assay: NCI In Vivo Anticancer Drug Screen. Data for tumor model L1210 Leukemia (intraperitoneal) in B6D2F1 (BDF1) mice
Conditions: endpoint: mean survival time, higher = longer survival
Procedure, shortened: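 Survival endpoint. Drug-treated group vs vehicle group, expressed as T divided by C. Tumor passaged by transplantation.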

[1] = dose: 50.0 mg/kg/injection, schedule: Q01DX009 (ip), vehicle: Klucel (hydroxypropylcellulose) (HPC)
[2] = dose: 100.0 mg/kg/injection, schedule: Q01DX001 (ip), vehicle: carboxymethylcellulose (CMC)
[3] = dose: 100.0 mg/kg/injection, schedule: Q04DX003 (ip), vehicle: saline with Tween-80
[4] = dose: 200.0 mg/kg/injection, schedule: Q04DX003 (ip), vehicle: saline with Tween-80
[5] = dose: 400.0 mg/kg/injection, schedule: Q04DX003 (ip), vehicle: saline with Tween-80
[6] = dose: 100.0 mg/kg/injection, schedule: Q01DX001 (ip), vehicle: saline
[7] = dose: 100.0 mg/kg/injection, schedule: Q01DX009 (ip), vehicle: saline with Tween-80
[8] = dose: 200.0 mg/kg/injection, schedule: Q01DX009 (ip), vehicle: saline with Tween-80
[9] = dose: 400.0 mg/kg/injection, schedule: Q01DX009 (ip), vehicle: saline with Tween-80
[10] = dose: 100.0 mg/kg/injection, schedule: Q04DX002 (ip), vehicle: Klucel (hydroxypropylcellulose) (HPC)
[11] = dose: 200.0 mg/kg/injection, schedule: Q04DX002 (ip), vehicle: Klucel (hydroxypropylcellulose) (HPC)
[12] = dose: 400.0 mg/kg/injection, schedule: Q04DX002 (ip), vehicle: Klucel (hydroxypropylcellulose) (HPC)
[13] = dose: 100.0 mg/kg/injection, schedule: Q01DX009 (ip), vehicle: Klucel (hydroxypropylcellulose) (HPC)
[14] = dose: 200.0 mg/kg/injection, schedule: Q01DX009 (ip), vehicle: Klucel (hydroxypropylcellulose) (HPC)
[15] = dose: 100.0 mg/kg/injection, schedule: Q01DX009 (ip), vehicle: saline
[16] = dose: 100.0 mg/kg/injection, schedule: Q04DX003 (ip), vehicle: saline
[17] = dose: 200.0 mg/kg/injection, schedule: Q01DX009 (ip), vehicle: saline
[18] = dose: 200.0 mg/kg/injection, schedule: Q04DX003 (ip), vehicle: saline
[19] = dose: 400.0 mg/kg/injection, schedule: Q01DX009 (ip), vehicle: saline
[20] = dose: 100.0 mg/kg/injection, schedule: Q04DX003 (ip), vehicle: Klucel (hydroxypropylcellulose) (HPC)
[21] = dose: 200.0 mg/kg/injection, schedule: Q04DX003 (ip), vehicle: Klucel (hydroxypropylcellulose) (HPC)
[22] = dose: 400.0 mg/kg/injection, schedule: Q04DX003 (ip), vehicle: Klucel (hydroxypropylcellulose) (HPC)

Measured: T/C

c1ccc2c(OCC3=NCCN3)cccc2c1
inactive: dose: 20.0 mg/kg/injection, schedule: Q01DX001 (ip), vehicle: Klucel (hydroxypropylcellulose) (HPC) 104 % of control | dose: 25.0 mg/kg/injection, schedule: Q01DX009 (ip), vehicle: Klucel (hydroxypropylcellulose) (HPC) 105 % of control | dose: 40.0 mg/kg/injection, schedule: Q01DX001 (ip), vehicle: Klucel (hydroxypropylcellulose) (HPC) 104 % of control | [1] 106 % of control | dose: 80.0 mg/kg/injection, schedule: Q01DX001 (ip), vehicle: Klucel (hydroxypropylcellulose) (HPC) 102 % of control | dose: 100.0 mg/kg/injection, schedule: Q01DX001 (ip), vehicle: Klucel (hydroxypropylcellulose) (HPC) 109 % of control

Cc1ccc2[nH]c(=O)cc(C)c2c1
inactive: [2] 102 % of control | [3] 95 % of control | [4] 98 % of control | [5] 101 % of control

CCOC(O)(C(F)(F)F)C(F)(F)F
inactive: dose: 12.5 mg/kg/injection, schedule: Q01DX009 (ip), vehicle: saline with Tween-80 96 % of control | dose: 12.5 mg/kg/injection, schedule: Q04DX003 (ip), vehicle: saline with Tween-80 95 % of control | dose: 25.0 mg/kg/injection, schedule: Q01DX009 (ip), vehicle: saline with Tween-80 105 % of control | dose: 50.0 mg/kg/injection, schedule: Q04DX003 (ip), vehicle: saline with Tween-80 97 % of control | [6] 98 % of control

CC(=O)OCOC(COC(C)=O)C1OCOC(COC(C)=O)C1OCOC(C)=O (stereo not given)
inactive: dose: 100.0 mg/kg/injection, schedule: Q04DX002 (ip), vehicle: saline with Tween-80 100 % of control | dose: 200.0 mg/kg/injection, schedule: Q04DX002 (ip), vehicle: saline with Tween-80 100 % of control | dose: 400.0 mg/kg/injection, schedule: Q04DX002 (ip), vehicle: saline with Tween-80 100 % of control

COc1ccc(C(=O)c2c(C(=O)O)ccc3ccccc23)cc1
inactive: [7] 104 % of control | dose: 100.0 mg/kg/injection, schedule: Q04DX003 (ip), vehicle: other 101 % of control | [8] 95 % of control | dose: 200.0 mg/kg/injection, schedule: Q04DX003 (ip), vehicle: other 100 % of control | [9] 106 % of control | dose: 400.0 mg/kg/injection, schedule: Q04DX003 (ip), vehicle: other 100 % of control

CCc1ccc([N+](=O)[O-])cc1
inactive: [2] 95 % of control | dose: 200.0 mg/kg/injection, schedule: Q01DX001 (ip), vehicle: carboxymethylcellulose (CMC) 103 % of control | dose: 400.0 mg/kg/injection, schedule: Q01DX001 (ip), vehicle: carboxymethylcellulose (CMC) 97 % of control

CNC(=O)NC1CCOCC1
inactive: [6] 100 % of control | dose: 200.0 mg/kg/injection, schedule: Q01DX001 (ip), vehicle: saline 96 % of control | dose: 400.0 mg/kg/injection, schedule: Q01DX001 (ip), vehicle: saline 96 % of control

Cc1cnc(NC(N)=O)nc1-c1ccccc1O
inactive: [10] 95 % of control | [11] 91 % of control | [12] 87 % of control

CCCCCCCCc1cc(Cl)c(O)c(Cl)c1
inactive: [1] 105 % of control | [13] 105 % of control | [14] 93 % of control

CC12CC(C3(O)C(=O)Nc4ccccc43)C(=O)CC1CCC1C2CCC2(C)C(OC(=O)c3ccccc3)CCC12 (stereo not given)
inactive: [1] 93 % of control | [13] 101 % of control | [14] 101 % of control

CC(=O)Nc1ccc(C)c([N+](=O)[O-])c1
inactive: [15] 100 % of control | [16] 98 % of control | [17] 93 % of control | [18] 93 % of control | [19] 97 % of control | dose: 400.0 mg/kg/injection, schedule: Q04DX003 (ip), vehicle: saline 102 % of control

COc1ccc2c(c1)C1(C)CCN(CCc3ccccc3)C(C2)C1C (stereo not given)
inactive: dose: 75.0 mg/kg/injection, schedule: Q01DX001 (ip), vehicle: carboxymethylcellulose (CMC) 93 % of control | dose: 150.0 mg/kg/injection, schedule: Q01DX001 (ip), vehicle: carboxymethylcellulose (CMC) 94 % of control

O=C([O][Sb]([O]C(=O)C(F)(F)F)([c]1ccccc1)([c]1ccccc1)[c]1ccccc1)C(F)(F)F
inactive: dose: 100.0 mg/kg/injection, schedule: Q01DX001 (ip), vehicle: saline with Tween-80 99 % of control | dose: 200.0 mg/kg/injection, schedule: Q01DX001 (ip), vehicle: saline with Tween-80 92 % of control

c1cc(C2CCCCC2)ccc1-c1ccc(C2CCCCC2)cc1
inactive: [7] 94 % of control | [3] 98 % of control | [8] 94 % of control | [4] 101 % of control | [9] 97 % of control | [5] 90 % of control

CC(C)(O)C(Cl)(Cl)Cl
inactive: [20] 101 % of control | [16] 98 % of control | [21] 95 % of control | [18] 100 % of control

C(=N\c1oc(-c2ccccc2)nc1SCc1ccccc1)/c1ccccc1
inactive: [10] 96 % of control | [11] 96 % of control | [12] 120 % of control

CS(=O)(=O)c1cc(N2CC2)ncn1
inactive: dose: 4.0 mg/kg/injection, schedule: Q01DX015 (ip), vehicle: carboxymethylcellulose (CMC) 96 % of control | dose: 8.0 mg/kg/injection, schedule: Q01DX015 (ip), vehicle: carboxymethylcellulose (CMC) 102 % of control | dose: 16.0 mg/kg/injection, schedule: Q01DX015 (ip), vehicle: carboxymethylcellulose (CMC) 108 % of control | dose: 32.0 mg/kg/injection, schedule: Q01DX015 (ip), vehicle: carboxymethylcellulose (CMC) 113 % of control and 120 % of control | dose: 64.0 mg/kg/injection, schedule: Q01DX015 (ip), vehicle: carboxymethylcellulose (CMC) 110 % of control

O=C(O)CCNC(=O)CNC(=O)OCc1ccccc1
inactive: [13] 98 % of control | [14] 100 % of control | dose: 300.0 mg/kg/injection, schedule: Q01DX009 (ip), vehicle: Klucel (hydroxypropylcellulose) (HPC) 98 % of control

CCOC1=C(Cl)C(=O)C(OCC)=C(Cl)C1=O
inactive: dose: 4.0 mg/kg/injection, schedule: Q04DX003 (ip), vehicle: DMSO 98 % of control | dose: 6.0 mg/kg/injection, schedule: Q04DX003 (ip), vehicle: DMSO 98 % of control | dose: 9.0 mg/kg/injection, schedule: Q04DX003 (ip), vehicle: DMSO 96 % of control and 86 % of control | dose: 75.0 mg/kg/injection, schedule: Q01DX001 (ip), vehicle: alcohol 92 % of control | dose: 150.0 mg/kg/injection, schedule: Q01DX001 (ip), vehicle: alcohol 97 % of control

CC/C(=N\NS(=O)(=O)c1ccc(C)cc1)C(C)C
inactive: dose: 75.0 mg/kg/injection, schedule: Q01DX001 (ip), vehicle: saline 95 % of control | dose: 75.0 mg/kg/injection, schedule: Q04DX003 (ip), vehicle: saline 91 % of control | dose: 150.0 mg/kg/injection, schedule: Q01DX001 (ip), vehicle: saline 95 % of control | dose: 150.0 mg/kg/injection, schedule: Q04DX003 (ip), vehicle: saline 100 % of control | dose: 300.0 mg/kg/injection, schedule: Q01DX001 (ip), vehicle: saline 97 % of control | dose: 300.0 mg/kg/injection, schedule: Q04DX003 (ip), vehicle: saline 96 % of control

C[NH-].C[NH-].C[NH-].C[NH-].[Cl][Rh][Cl]
inactive: [13] 97 % of control | [20] 86 % of control | [21] 94 % of control | [22] 92 % of control

CC(=O)c1ccc2c(c1)Nc1ccccc1S2
inactive: dose: 50.0 mg/kg/injection, schedule: Q04DX003 (ip), vehicle: Klucel (hydroxypropylcellulose) (HPC) 97 % of control | [13] 104 % of control and 102 % of control | [20] 101 % of control | [14] 106 % of control and 94 % of control | [21] 102 % of control | dose: 400.0 mg/kg/injection, schedule: Q01DX009 (ip), vehicle: Klucel (hydroxypropylcellulose) (HPC) 95 % of control and 91 % of control | [22] 91 % of control

CC(=Nc1cccc(C)c1C)c1c(O)cc(C)oc1=O
inactive: [15] 108 % of control | [17] 97 % of control | [19] 103 % of control
